Results published in ChEMBL document CHEMBL1201862, “PubChem BioAssay data set” (2004).
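Test compounds were applied to cells in 96-well plates for 48 hours at 5 doses. At the GI50, growth is halved.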 Active and inactive are the calls of the source. No stated cut-off is given here; in the data, active = GI50 up to about 1.1 µM and inactive = higher.

Experiments:
Assay in all cases: NCI tumour cell line growth inhibition, 48 h
TK-10 = tested on: TK-10
PC-3 = tested on: PC-3
SK-MEL-28 = tested on: SK-MEL-28
SW-620 = tested on: SW-620
NCI-H226 = tested on: NCI-H226
OVCAR-8 = tested on: OVCAR-8
SK-MEL-5 = tested on: SK-MEL-5
HOP-92 = tested on: HOP-92
CCRF-CEM = tested on: CCRF-CEM
SR = tested on: SR
HL-60 = tested on: HL-60
M14 = tested on: M14
UO-31 = tested on: UO-31
EKVX = tested on: EKVX
MDA-MB-435 = tested on: MDA-MB-435
HT-29 = tested on: HT-29
HCC 2998 = tested on: HCC 2998
DU-145 = tested on: DU-145
NCI/ADR-RES = tested on: NCI/ADR-RES
RXF 393 = tested on: RXF 393
NCI-H23 = tested on: NCI-H23
T47D = tested on: T47D
U-251 = tested on: U-251
HOP-62 = tested on: HOP-62
BT-549 = tested on: BT-549
NCI-H522 = tested on: NCI-H522
HCT-116 = tested on: HCT-116
A498 = tested on: A498
LOX IMVI = tested on: LOX IMVI
SN12C = tested on: SN12C
Malme-3M = tested on: Malme-3M
SF-539 = tested on: SF-539
NCI-H460 = tested on: NCI-H460
SK-OV-3 = tested on: SK-OV-3
SF-295 = tested on: SF-295
SF-268 = tested on: SF-268
COLO 205 = tested on: COLO 205
UACC-257 = tested on: UACC-257
IGROV-1 = tested on: IGROV-1
KM12 = tested on: KM12
MDA-N = tested on: MDA-N
MCF7 = tested on: MCF7
UACC-62 = tested on: UACC-62
Hs-578T = tested on: Hs-578T
OVCAR-3 = tested on: OVCAR-3
OVCAR-5 = tested on: OVCAR-5
MDA-MB-231 = tested on: MDA-MB-231
CAKI-1 = tested on: CAKI-1
ACHN = tested on: ACHN
RPMI-8226 = tested on: RPMI-8226
MOLT-4 = tested on: MOLT-4
K562 = tested on: K562
SNB-19 = tested on: SNB-19
OVCAR-4 = tested on: OVCAR-4
HCT-15 = tested on: HCT-15
SK-MEL-2 = tested on: SK-MEL-2
A549 = tested on: A549

Q: How did the GI50 (TK-10) turn out when `O=C(O)c1nc2ccc(C(F)(F)F)cc2[nH]c1=O` was run?
A: The GI50 was > 100 µM (inactive).

Q: And the GI50 (PC-3)?
A: The GI50 was > 100 µM (inactive).

Q: And the GI50 (SK-MEL-28)?
A: Its GI50 is > 100 µM (inactive).

Q: And the GI50 (SW-620)?
A: Its GI50 is > 100 µM (inactive).

Q: What about the GI50 (NCI-H226) of the same molecule?
A: The GI50 was > 100 µM (inactive).

Q: And the GI50 (OVCAR-8)?
A: Its GI50 is > 100 µM (inactive).

Q: What about the GI50 (SK-MEL-5) of the same molecule?
A: The GI50 was > 100 µM (inactive).

Q: And the GI50 (HOP-92)?
A: The GI50 was > 100 µM (inactive).

Q: And the GI50 (CCRF-CEM)?
A: Its GI50 is > 100 µM (inactive).

Q: What about the GI50 (SR) of the same molecule?
A: Its GI50 is > 100 µM (inactive).

Q: And the GI50 (HL-60)?
A: Its GI50 is > 100 µM (inactive).

Q: What about the GI50 (M14) of the same molecule?
A: Its GI50 is > 100 µM (inactive).

Q: And the GI50 (UO-31)?
A: The GI50 was > 100 µM (inactive).

Q: What about the GI50 (EKVX) of the same molecule?
A: Its GI50 is > 100 µM (inactive).

Q: And the GI50 (MDA-MB-435)?
A: Its GI50 is > 100 µM (inactive).

Q: And the GI50 (HT-29)?
A: Its GI50 is > 100 µM (inactive).

Q: What about the GI50 (HCC 2998) of the same molecule?
A: Its GI50 is > 100 µM (inactive).

Q: And the GI50 (DU-145)?
A: The GI50 was > 100 µM (inactive).

Q: And the GI50 (NCI/ADR-RES)?
A: Its GI50 is > 100 µM (inactive).

Q: And the GI50 (RXF 393)?
A: The GI50 was > 100 µM (inactive).

Q: And the GI50 (NCI-H23)?
A: The GI50 was > 100 µM (inactive).

Q: And the GI50 (T47D)?
A: Its GI50 is > 100 µM (inactive).

Q: What about the GI50 (U-251) of the same molecule?
A: The GI50 was > 100 µM (inactive).

Q: What about the GI50 (HOP-62) of the same molecule?
A: Its GI50 is > 100 µM (inactive).

Q: And the GI50 (BT-549)?
A: Its GI50 is > 100 µM (inactive).

Q: What about the GI50 (NCI-H522) of the same molecule?
A: The GI50 was > 100 µM (inactive).

Q: What about the GI50 (HCT-116) of the same molecule?
A: Its GI50 is > 100 µM (inactive).

Q: What about the GI50 (A498) of the same molecule?
A: Its GI50 is > 100 µM (inactive).

Q: What about the GI50 (LOX IMVI) of the same molecule?
A: The GI50 was > 100 µM (inactive).

Q: What about the GI50 (SN12C) of the same molecule?
A: Its GI50 is > 100 µM (inactive).

Q: What about the GI50 (Malme-3M) of the same molecule?
A: Its GI50 is > 100 µM (inactive).

Q: What about the GI50 (SF-539) of the same molecule?
A: Its GI50 is > 100 µM (inactive).

Q: What about the GI50 (NCI-H460) of the same molecule?
A: The GI50 was > 100 µM (inactive).

Q: And the GI50 (SK-OV-3)?
A: The GI50 was > 100 µM (inactive).

Q: What about the GI50 (SF-295) of the same molecule?
A: The GI50 was > 100 µM (inactive).

Q: What about the GI50 (SF-268) of the same molecule?
A: Its GI50 is > 100 µM (inactive).

Q: What about the GI50 (COLO 205) of the same molecule?
A: Its GI50 is > 100 µM (inactive).

Q: And the GI50 (UACC-257)?
A: The GI50 was > 100 µM (inactive).

Q: And the GI50 (IGROV-1)?
A: Its GI50 is > 100 µM (inactive).

Q: And the GI50 (KM12)?
A: Its GI50 is > 100 µM (inactive).

Q: And the GI50 (MDA-N)?
A: Its GI50 is > 100 µM (inactive).

Q: What about the GI50 (MCF7) of the same molecule?
A: Its GI50 is > 100 µM (inactive).

Q: What about the GI50 (UACC-62) of the same molecule?
A: Its GI50 is > 100 µM (inactive).

Q: And the GI50 (Hs-578T)?
A: Its GI50 is > 100 µM (inactive).

Q: What about the GI50 (OVCAR-3) of the same molecule?
A: Its GI50 is > 100 µM (inactive).

Q: What about the GI50 (OVCAR-5) of the same molecule?
A: The GI50 was > 100 µM (inactive).

Q: What about the GI50 (MDA-MB-231) of the same molecule?
A: Its GI50 is > 100 µM (inactive).

Q: What about the GI50 (CAKI-1) of the same molecule?
A: Its GI50 is > 100 µM (inactive).

Q: And the GI50 (ACHN)?
A: The GI50 was > 100 µM (inactive).

Q: What about the GI50 (RPMI-8226) of the same molecule?
A: The GI50 was > 100 µM (inactive).

Q: And the GI50 (MOLT-4)?
A: The GI50 was > 100 µM (inactive).

Q: What about the GI50 (K562) of the same molecule?
A: The GI50 was > 100 µM (inactive).

Q: And the GI50 (SNB-19)?
A: Its GI50 is > 100 µM (inactive).

Q: What about the GI50 (OVCAR-4) of the same molecule?
A: The GI50 was > 100 µM (inactive).

Q: What about the GI50 (HCT-15) of the same molecule?
A: The GI50 was > 100 µM.

Q: What about the GI50 (SK-MEL-2) of the same molecule?
A: Its GI50 is > 100 µM (inactive).

Q: And the GI50 (A549)?
A: The GI50 was > 100 µM (inactive).
